Active and inactive are the calls of the source. The calls are words filed in the database; no cut-off is given here.
What was measured:
[1] = system: HCC827; experiment: Cytotoxicity against human HCC827 cells assessed as reduction in cell viability after 48 hrs by XTT assay; type: functional, cell-based; details: HCC827, 48 h
[2] = system: A549; experiment: Induction of apoptosis in human A549 cells assessed as activation of caspase 3/7 after 48 hrs by flow cytometry; type: functional, cell-based
[3] = system: MRC5; experiment: Cytotoxicity against human MRC5 cells assessed as reduction in cell viability after 24 hrs by XTT assay; type: cell-based; details: MRC5, 24 h
[4] = system: A549; experiment: Induction of apoptosis in human A549 cells assessed as hypodiploid DNA content at 10 nM after 72 hrs by propidium iodide staining flow cytometry (reference value: 3 to 4%); type: functional
[5] = system: A549; experiment: Induction of apoptosis in human A549 cells assessed as hypodiploid DNA content at 100 nM after 72 hrs by propidium iodide staining flow cytometry (reference value: 3 to 4%); type: functional
[6] = system: A549; experiment: Cytotoxicity against human A549 cells assessed as reduction in cell viability after 24 hrs by XTT assay; type: functional, cell-based; details: A549, 24 h
[7] = system: HCC827; experiment: Cell cycle arrest in human HCC827 cells at 50 to 100 nM after 24 hrs by propidium iodide staining based flow cytometry; type: functional
[8] = system: HCC827; experiment: Induction of apoptosis in human HCC827 cells assessed as increase in hypodiploid DNA content at 50 to 100 nM after 72 hrs by propidium iodide staining flow cytometry; type: functional, cell-based
[9] = system: A549; experiment: Induction of apoptosis in human A549 cells assessed as activation of caspase 3/7 at 50 nM after 48 hrs using Z-DEVD-R110 as substrate by flow cytometry (reference value: 9%); type: functional
[10] = system: CAL-12T; experiment: Cell cycle arrest in human CAL-12T cells at 50 to 100 nM after 24 hrs by propidium iodide staining based flow cytometry; type: functional
[11] = target: T1, Cyclin-dependent kinase 1/cyclin B1 (Homo sapiens) (UniProt P06493+P14635); experiment: Activation of CDK1/cyclinB1 in human A549 cells at 50 to 100 nM after 12 hrs by western blot analysis; type: cell-based
T1 sequence (P06493 whole entry, looked up): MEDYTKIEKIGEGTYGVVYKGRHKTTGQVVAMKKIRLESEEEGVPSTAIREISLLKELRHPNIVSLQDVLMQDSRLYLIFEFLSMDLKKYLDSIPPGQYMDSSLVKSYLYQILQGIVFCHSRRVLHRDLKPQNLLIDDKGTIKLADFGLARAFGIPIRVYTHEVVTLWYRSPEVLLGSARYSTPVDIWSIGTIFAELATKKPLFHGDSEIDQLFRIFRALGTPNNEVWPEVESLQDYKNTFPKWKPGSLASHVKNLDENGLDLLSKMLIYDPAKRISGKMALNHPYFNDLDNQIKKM
T1 sequence (P14635 whole entry, looked up): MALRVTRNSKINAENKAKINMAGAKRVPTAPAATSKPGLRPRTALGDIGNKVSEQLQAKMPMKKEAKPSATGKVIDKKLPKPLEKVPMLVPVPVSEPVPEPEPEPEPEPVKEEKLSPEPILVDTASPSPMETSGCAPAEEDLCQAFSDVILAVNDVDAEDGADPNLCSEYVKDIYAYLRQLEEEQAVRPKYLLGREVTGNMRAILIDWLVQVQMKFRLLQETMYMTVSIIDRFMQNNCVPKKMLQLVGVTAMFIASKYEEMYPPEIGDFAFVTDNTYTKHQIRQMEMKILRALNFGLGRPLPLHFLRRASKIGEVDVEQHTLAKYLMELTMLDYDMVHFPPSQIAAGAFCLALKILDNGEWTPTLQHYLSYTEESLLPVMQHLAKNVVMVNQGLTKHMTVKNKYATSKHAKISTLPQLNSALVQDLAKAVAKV

[12] = system: MDA-MB-231; experiment: Cytotoxicity against human MDA-MB-231 cells assessed as reduction in cell viability after 24 hrs by XTT assay; type: functional, cell-based; details: MDA-MB-231, 24 h
[13] = system: A549; experiment: Cytotoxicity against human A549 cells assessed as reduction in cell viability pretreated with ROS scavenger ebselen for 1 hr followed by compound addition measured after 24 hrs by XTT assay; type: functional, cell-based
[14] = system: A549; experiment: Cell cycle arrest in human A549 cells assessed as accumulation at G0/G1 phase at 100 nM after 24 hrs by propidium iodide staining based flow cytometry (reference value: 61%); type: functional
[15] = system: A549; experiment: Induction of mitochondrial dysfunction in human A549 cells assessed as cell population with mitochondrial potential loss at 100 nM after 48 hrs by JC-1 staining based flow cytometry (reference value: 7%); type: functional
[16] = system: A549; experiment: Cytotoxicity against human A549 cells assessed as reduction in cell viability after 48 hrs by XTT assay; type: functional, cell-based; details: A549, 48 h
[17] = system: A549; experiment: Induction of mitochondrial dysfunction in human A549 cells assessed as decrease in ratio of red to green fluorescence intensity at 50 nM after 48 hrs by JC-1 staining based flow cytometry; type: functional; set-up: scale not given: the % may be the effect or the level left
[18] = system: MDA-MB-231; experiment: Cytotoxicity against human MDA-MB-231 cells assessed as reduction in cell viability after 48 hrs by XTT assay; type: functional, cell-based; details: MDA-MB-231, 48 h
[19] = system: A549; experiment: Induction of intracellular ROS production in human A549 cells at 100 nM after 48 hrs by H2DCFDA staining based flow cytometry relative to control; type: functional
[20] = system: A549; experiment: Induction of apoptosis in human A549 cells assessed as hypodiploid DNA content at 50 nM after 72 hrs by propidium iodide staining flow cytometry (reference value: 3 to 4%); type: functional
[21] = system: A549; experiment: Induction of intracellular ROS production in human A549 cells at 50 nM after 48 hrs by H2DCFDA staining based flow cytometry relative to control; type: functional
[22] = system: A549; experiment: Cell cycle arrest in human A549 cells assessed as accumulation at G0/G1 phase at 50 nM after 24 hrs by propidium iodide staining based flow cytometry (reference value: 61%); type: functional
[23] = system: CAL-12T; experiment: Cytotoxicity against human CAL-12T cells assessed as reduction in cell viability after 48 hrs by XTT assay; type: functional, cell-based
[24] = target: T1, Cyclin-dependent kinase 1/cyclin B1 (Homo sapiens); experiment: Activation of CDK1/cyclinB1 in human A549 cells at 100 nM after 24 hrs by western blot analysis; type: cell-based
[25] = system: A549; experiment: Induction of mitochondrial dysfunction in human A549 cells assessed as cell population with intact mitochondrial potential at 50 nM after 48 hrs by JC-1 staining based flow cytometry (reference value: 7%); type: functional
[26] = system: A549; experiment: Cytotoxicity against human A549 cells assessed as reduction in cell viability pretreated with ROS scavenger edaravone for 1 hr followed by compound addition measured after 24 hrs by XTT assay; type: functional, cell-based
[27] = system: CAL-12T; experiment: Induction of apoptosis in human CAL-12T cells assessed as increase in hypodiploid DNA content at 50 to 100 nM after 72 hrs by propidium iodide staining flow cytometry; type: functional, cell-based
[28] = system: A549; experiment: Cell cycle arrest in human A549 cells assessed as accumulation at G2/M phase at 50 nM after 24 hrs by propidium iodide staining based flow cytometry (reference value: 18%); type: functional
[29] = system: A549; experiment: Induction of mitochondrial dysfunction in human A549 cells assessed as cell population with intact mitochondrial potential at 100 nM after 48 hrs by JC-1 staining based flow cytometry (reference value: 7%); type: functional
[30] = target: T1, Cyclin-dependent kinase 1/cyclin B1 (Homo sapiens); experiment: Activation of CDK1/cyclinB1 in human A549 cells assessed as increase in cytokinesis defects at 100 nM after 24 hrs by DAPI staining based assay; type: cell-based
[31] = system: A549; experiment: Cell cycle arrest in human A549 cells assessed as accumulation at G2/M phase at 100 nM after 24 hrs by propidium iodide staining based flow cytometry (reference value: 18%); type: functional
[32] = system: PBMC; experiment: Cytotoxicity against human PBMC cells assessed as reduction in cell viability after 48 hrs by XTT assay; type: cell-based
[33] = system: A549; experiment: Cytotoxicity against human A549 cells assessed as reduction in cell viability pretreated with ROS scavenger tempol for 1 hr followed by compound addition measured after 24 hrs by XTT assay; type: functional, cell-based
[34] = system: A549; experiment: Induction of apoptosis in human A549 cells assessed as activation of caspase 3/7 at 100 nM after 48 hrs using Z-DEVD-R110 as substrate by flow cytometry (reference value: 9%); type: functional
[35] = system: A549; experiment: Induction of mitotic catastrophe in human A549 cells assessed as population of cells showing increase in size at 100 nM after 24 hrs by flow cytometry (reference value: 5.7%); type: functional
[36] = system: A549; experiment: Cell cycle arrest in human A549 cells assessed as accumulation at G2/M phase after 24 hrs by propidium iodide staining based flow cytometry; type: functional
[37] = target: Cyclin-dependent kinase 1 (Homo sapiens) (UniProt P06493); experiment: Activation of CDK1 in human A549 cells assessed as increase in CDK1 phosphorylation at Tyr15 residues at 100 nM after 24 hrs by western blot analysis; type: cell-based
Cyclin-dependent kinase 1 (Homo sapiens), sequence (P06493 whole entry, looked up): as the sequence (P06493 whole entry, looked up) above

[38] = system: A549; experiment: Induction of mitochondrial dysfunction in human A549 cells assessed as cell population with mitochondrial potential loss at 50 nM after 48 hrs by JC-1 staining based flow cytometry (reference value: 7%); type: functional
[39] = system: A549; experiment: Induction of mitochondrial dysfunction in human A549 cells assessed as decrease in ratio of red to green fluorescence intensity at 100 nM after 48 hrs by JC-1 staining based flow cytometry; type: functional; set-up: scale not given: the % may be the effect or the level left

Q: With `CO[C@H]1[C@H](O)[C@H](O[C@@H]2C[C@H]3CC[C@@H]4[C@H](CC[C@]5(C)[C@@H](C6=CC(=O)OC6)CC[C@]45O)[C@@]3(C)[C@H](O)C2)O[C@@H](C)[C@@H]1O` as the compound, how does the IC50 [1] read?
A: Its IC50 is 701 nM.

Q: And the Activity [2]?
A: The Activity was “Dose-dependent effect”.

Q: And the IC50 [3]?
A: The IC50 was greater than 1000 nM.

Q: What about the Activity [4] of the same compound?
A: The Activity was 3%.

Q: What about the Activity [5] of the same compound?
A: The Activity was 51 - 55%.

Q: What about the IC50 [6] of the same compound?
A: Its IC50 is 95 nM.

Q: And the Activity [7]?
A: Its Activity is “inactive”.

Q: And the Activity [8]?
A: Its Activity is “Active”.

Q: What about the Activity [9] of the same compound?
A: The Activity was 38%.

Q: What about the Activity [10] of the same compound?
A: The Activity was “Active”.

Q: And the Activity [11]?
A: The Activity was “Active”.

Q: What about the IC50 [12] of the same compound?
A: The IC50 was 4200 nM.

Q: And the Activity [13]?
A: The Activity was “Active”.

Q: What about the Activity [14] of the same compound?
A: Its Activity is 31%.

Q: What about the Activity [15] of the same compound?
A: Its Activity is 9%.

Q: What about the IC50 [16] of the same compound?
A: Its IC50 is 68 nM.

Q: And the Activity [17]?
A: Its Activity is 20%.

Q: What about the IC50 [18] of the same compound?
A: Its IC50 is 1500 nM.

Q: And the “fold change (FC)” value [19]?
A: The value was 2.8.

Q: And the Activity [20]?
A: Its Activity is 13 - 17%.

Q: And the “fold change (FC)” value [21]?
A: Its value is 1.5.

Q: What about the Activity [22] of the same compound?
A: Its Activity is 50%.

Q: What about the IC50 [23] of the same compound?
A: The IC50 was 161 nM.

Q: What about the Activity [24] of the same compound?
A: The Activity was “Active”.

Q: What about the Activity [25] of the same compound?
A: The Activity was 9%.

Q: What about the Activity [26] of the same compound?
A: The Activity was “Active”.

Q: What about the Activity [27] of the same compound?
A: Its Activity is “Active”.

Q: And the Activity [28]?
A: Its Activity is 29%.

Q: What about the Activity [29] of the same compound?
A: Its Activity is 13.9%.

Q: What about the Activity [30] of the same compound?
A: Its Activity is 34.3%.

Q: And the Activity [31]?
A: Its Activity is 43%.

Q: And the Activity [32]?
A: The Activity was “Non-Toxic”.

Q: And the Activity [33]?
A: The Activity was “Active”.

Q: What about the Activity [34] of the same compound?
A: Its Activity is 65%.

Q: And the Activity [35]?
A: The Activity was 29.8%.

Q: And the Activity [36]?
A: The Activity was “Dose-dependent effect”.

Q: And the Activity [37]?
A: Its Activity is “Active”.

Q: What about the Activity [38] of the same compound?
A: Its Activity is 8.8%.

Q: And the Activity [39]?
A: Its Activity is 40%.

Q: For `COc1cccc2c1C(=O)c1c(O)c3c(c(O)c1C2=O)C[C@@](O)(C(=O)CO)C[C@@H]3O[C@H]1C[C@H](N)[C@H](O)[C@H](C)O1` [DOXORUBICIN], which Activity [15] is on record?
A: The Activity was 8.2%.

Q: And the Activity [29]?
A: The Activity was 12.4%.

Reference: ChEMBL document CHEMBL4138206, “Acovenoside A Induces Mitotic Catastrophe Followed by Apoptosis in Non-Small-Cell Lung Cancer Cells” (J Nat Prod, 2017)
